Source: publication PMC12584752, “Covalent fragment screening to inhibit the E3 ligase activity of bacterial NEL enzymes SspH1 and SspH2” (RSC Chemical Biology, 2025)

Tests used:
Format in all cases: binding
SspH2 = target: T1, SspH2 (Salmonella typhimurium, UniProt D0ZPH9); assay: Intact LC-MS labelling dilution series; settings: dilution series 100–6.25 μM, 24 hours at 4 °C
T1 construct: Recombinant SspH1 (aa 161–700) and SspH2 (aa 166–783) were both characterised; His-tag (N, cleaved yes); made in house; host or cells: E. coli BL21
T1 sequence (D0ZPH9 166-783): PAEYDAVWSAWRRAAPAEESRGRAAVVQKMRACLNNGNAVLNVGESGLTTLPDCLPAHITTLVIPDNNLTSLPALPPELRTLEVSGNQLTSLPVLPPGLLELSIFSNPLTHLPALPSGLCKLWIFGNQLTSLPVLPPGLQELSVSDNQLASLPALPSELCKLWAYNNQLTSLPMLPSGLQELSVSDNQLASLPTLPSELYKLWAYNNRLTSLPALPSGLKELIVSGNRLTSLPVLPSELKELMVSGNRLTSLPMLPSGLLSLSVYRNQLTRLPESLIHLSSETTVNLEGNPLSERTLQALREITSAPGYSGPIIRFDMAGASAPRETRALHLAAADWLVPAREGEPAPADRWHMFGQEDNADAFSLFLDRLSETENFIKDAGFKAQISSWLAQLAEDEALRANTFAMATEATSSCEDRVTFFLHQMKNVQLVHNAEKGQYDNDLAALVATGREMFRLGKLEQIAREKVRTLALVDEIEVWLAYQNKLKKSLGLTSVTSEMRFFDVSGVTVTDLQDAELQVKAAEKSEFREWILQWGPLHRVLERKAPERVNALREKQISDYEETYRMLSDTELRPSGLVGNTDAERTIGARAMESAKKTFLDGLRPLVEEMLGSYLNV
Method: Fig. 3 Validation of HTC hit compounds by intact MS. Labelling heatmaps of dilution series (100–6.25 μM) of compounds 4–10 with (A) WT SspH1 and (B) C492K SspH1. Labelling heatmaps of dilution series of (C) compound 6 and (D) compound 7 with bacterial and human ubiquitin binding proteins. Recombinant proteins were incubated at either 1.0 or 0.5 μM with 50 μM fragments for 24 hours at 4 °C, before fragment labelling was analysed by intact LC-MS. Bacterial proteins are shown in bold and human proteins in italic fonts. (E)–(H) Kinetics analyses: time courses (0–12 hours) of compound labelling (100–1.56 μM) of SspH1 and SspH2 (0.5 μM) for (E) SspH1 and compound 7, and (F) SspH2 and compound 6. Measurements were performed in technical triplicates. Labelling percentages were plotted against time in GraphPad Prism v.10, and curves fitted separately for each replicate using one-phase association, with constraints Y0 = 0 and plateau = highest labelling percentage. Graphs for SspH1 and compound 6, and SspH2 and compound 7 are shown in Fig. S4A and B. Rate constants (kobs, as given by Graphpad Prism calculated K values) were plotted against fragment concentration in triplicate for (G) SspH1 and (H) SspH2. Straight lines were fitted with constraint Yintercept = 0. For SspH2 kinetics, 100 μM kobs was outside the linear range. […]

IpaH9.8 (21–545) = target: T2, IpaH9.8 (21–545) (Shigella flexneri, UniProt Q8VSC3); assay: Intact protein LC-MS covalent fragment labelling; settings: dilution series 100–6.25 μM, 24 hours at 4 °C
T2 construct: Recombinant IpaH9.8 (21–545) and SspH1 (161–700) were incubated at 0.5 μM; His-tag (N, cleaved yes); made in house; host or cells: E. coli BL21
T2 sequence (Q8VSC3 21-545): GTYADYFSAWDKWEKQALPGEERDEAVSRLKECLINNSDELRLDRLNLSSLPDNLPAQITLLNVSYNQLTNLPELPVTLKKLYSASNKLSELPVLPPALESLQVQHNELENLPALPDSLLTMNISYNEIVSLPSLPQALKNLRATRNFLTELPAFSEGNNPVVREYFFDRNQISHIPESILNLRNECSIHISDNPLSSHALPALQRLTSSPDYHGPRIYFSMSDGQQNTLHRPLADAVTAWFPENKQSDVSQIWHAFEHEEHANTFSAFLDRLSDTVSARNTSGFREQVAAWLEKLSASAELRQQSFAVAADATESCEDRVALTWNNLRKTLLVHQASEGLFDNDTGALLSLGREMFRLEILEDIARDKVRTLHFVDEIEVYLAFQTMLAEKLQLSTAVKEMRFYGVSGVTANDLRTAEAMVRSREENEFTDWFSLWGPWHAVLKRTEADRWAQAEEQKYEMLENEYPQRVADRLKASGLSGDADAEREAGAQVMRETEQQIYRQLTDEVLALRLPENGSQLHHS
Excerpt: A diverse library of 227 compounds with chloroacetamide warheads, featuring a diversity of molecular weight (162–321 Da) and clog P (−1.4 to 3.4) (Table S1), were screened against Salmonella and Shigella NEL E3 ligases using our intact protein liquid chromatography mass spectrometry (LC-MS) platform as previously described.[39,40] Briefly, recombinant SspH1 (161–700[30]) and IpaH9.8 (21–545[29]) (Fig. […] 1C). Raw counts were deconvoluted and the labelling percentage calculated by detection and comparison of protein and protein-fragment molecular weights.
Fig. 1 Intact protein LCMS screening of covalent fragment library against NEL proteins. (A) Cartoon depicting conserved NEL E3 ligase domains; (B) overlaid structures of SspH1 (blue, PDB 9H6W[30]) and IpaH9.8 (green, PDB 6LOL[29]) aligned on NEL domain; (C) workflow of covalent fragment screening using intact LC-MS; (D) fragment labelling percentages for SspH1 and IpaH9.8 with fragments 1–3 highlighted. […]
To mitigate the risk of selecting compounds which indiscriminately recognise ubiquitin binding proteins, we next performed preliminary selectivity studies with compounds 6 and 7 against human ubiquitin system proteins. […] In parallel, we tested the compounds against related NEL E3 ligases SspH2 and IpaH9.8. […]

SspH1 (161–700) = SspH1 (161–700) (Salmonella typhimurium, UniProt D0ZVG2); assay: Round 1 intact protein LC-MS covalent fragment labelling screen and dilution series; parameters: Recombinant IpaH9.8 (21–545) and SspH1 (161–700) were incubated at 0.5 μM; His-tag (N, cleaved yes); made in house; host or cells: E. coli BL21; settings: 24 hours at 4 °C
SspH1 (161–700), sequence (D0ZVG2 161-700): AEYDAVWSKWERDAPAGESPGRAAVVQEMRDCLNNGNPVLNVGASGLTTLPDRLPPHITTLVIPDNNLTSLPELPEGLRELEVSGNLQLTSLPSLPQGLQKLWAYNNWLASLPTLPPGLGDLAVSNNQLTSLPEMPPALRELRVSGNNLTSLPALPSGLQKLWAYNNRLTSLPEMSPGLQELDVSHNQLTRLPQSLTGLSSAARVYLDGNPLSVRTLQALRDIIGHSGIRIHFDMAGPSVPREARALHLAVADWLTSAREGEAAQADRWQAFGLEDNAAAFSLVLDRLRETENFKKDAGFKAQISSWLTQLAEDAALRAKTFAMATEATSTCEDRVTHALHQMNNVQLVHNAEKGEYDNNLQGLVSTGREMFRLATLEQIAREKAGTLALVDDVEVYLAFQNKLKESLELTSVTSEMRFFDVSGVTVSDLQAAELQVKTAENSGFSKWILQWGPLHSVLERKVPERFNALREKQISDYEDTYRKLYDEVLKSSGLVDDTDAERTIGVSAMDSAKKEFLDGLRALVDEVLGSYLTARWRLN
Method: A diverse library of 227 compounds with chloroacetamide warheads, featuring a diversity of molecular weight (162–321 Da) and clog P (−1.4 to 3.4) (Table S1), were screened against Salmonella and Shigella NEL E3 ligases using our intact protein liquid chromatography mass spectrometry (LC-MS) platform as previously described.[39,40] Briefly, recombinant SspH1 (161–700[30]) and IpaH9.8 (21–545[29]) (Fig. 1A and B) were incubated with 50 μM fragments for 24 hours at 4 °C before analysis by LC-MS (Fig. 1C). Raw counts were deconvoluted and the labelling percentage calculated by detection and comparison of protein and protein-fragment molecular weights.
Fig. 1 Intact protein LCMS screening of covalent fragment library against NEL proteins. (A) Cartoon depicting conserved NEL E3 ligase domains; (B) overlaid structures of SspH1 (blue, PDB 9H6W[30]) and IpaH9.8 (green, PDB 6LOL[29]) aligned on NEL domain; (C) workflow of covalent fragment screening using intact LC-MS; (D) fragment labelling percentages for SspH1 and IpaH9.8 with fragments 1–3 highlighted. Recombinant IpaH9.8 (21–545) and SspH1 (161–700) were incubated at 0.5 μM with 50 μM fragments for 24 hours at 4 °C, before fragment labelling was analysed by intact LC-MS; (E) chemical structures of fragments 1–3.
We next analysed the potency of compounds 4–10 against SspH1. The seven compounds were obtained as purified compounds (Table S2) and screened against SspH1 by intact LC-MS (Fig. 3A) with two-fold serial dilution (100–6.25 μM). To confirm which of the two cysteines in the SspH1 161–700 construct were labelled, we repeated the concentration response experiment with a catalytic cysteine mutant of SspH1 (C492K) (Fig. 3B). The complete abrogation of labelling confirmed that all […] compounds labelled the catalytic cysteine of SspH1.
1 μM IpaH9.8 or SspH1 were incubated with […] fragments for 24 hours at 4 °C, in 25 mM HEPES pH 7.5, 50 mM NaCl buffer. Intact protein LC-MS was performed as previously described.[40] The following deconvolution conditions were used for recombinant proteins studied in this work:
Dilution series experiments were performed as for 1st round screening. 1 μM OTUD4, OTUD5 or 0.5 μM HOIL, UbcH5A, SspH2, SspH1 C492K were incubated with 100–6.25 μM compounds for 24 hours at 4 °C, in 25 mM HEPES pH 7.5, 50 mM NaCl buffer. Intact protein LC-MS was performed as previously described.[40] The following deconvolution conditions were used for recombinant proteins studied in this work: […]

Row | SMILES | labelling of SspH2 (SspH2) | labelling of IpaH9.8 (IpaH9.8 (21–545)) | labelling of WT SspH1 (SspH1 (161–700); purified compound at 6.25 μM) [%] | labelling of WT SspH1 (SspH1 (161–700); purified compound at 12.5 μM) [%]
1 | Cc1cc(-c2nc3ccccc3n2C2CCN(C(=O)CCl)CC2)cc(C)c1O.Cl [compound 6] | very strong labelling | minimal labelling | > 60 | > 80
2 | Cl.O=C(CCl)N1CCC(n2c(-c3ccc(C(F)(F)F)cc3)nc3ccccc32)CC1 [compound 7] | very strong labelling | minimal labelling | > 60 | > 80
